Measurements reported in ChEMBL document CHEMBL5576085, “Heterocyclic compounds as xanthine oxidase inhibitors for the management of hyperuricemia: synthetic strategies, structure-activity relationship and molecular docking studies (2018-2024)” (RSC Med Chem, 2024).

How the values were obtained:
[1] = biological target: T1, Xanthine dehydrogenase/oxidase (Bos taurus, UniProt P80457); assay: Inhibition of bovine milk xanthine oxidase using xanthine as substrate preincubated for 30 mins followed by substrate addition by spectrophotometric analysis
T1 sequence (P80457 whole entry): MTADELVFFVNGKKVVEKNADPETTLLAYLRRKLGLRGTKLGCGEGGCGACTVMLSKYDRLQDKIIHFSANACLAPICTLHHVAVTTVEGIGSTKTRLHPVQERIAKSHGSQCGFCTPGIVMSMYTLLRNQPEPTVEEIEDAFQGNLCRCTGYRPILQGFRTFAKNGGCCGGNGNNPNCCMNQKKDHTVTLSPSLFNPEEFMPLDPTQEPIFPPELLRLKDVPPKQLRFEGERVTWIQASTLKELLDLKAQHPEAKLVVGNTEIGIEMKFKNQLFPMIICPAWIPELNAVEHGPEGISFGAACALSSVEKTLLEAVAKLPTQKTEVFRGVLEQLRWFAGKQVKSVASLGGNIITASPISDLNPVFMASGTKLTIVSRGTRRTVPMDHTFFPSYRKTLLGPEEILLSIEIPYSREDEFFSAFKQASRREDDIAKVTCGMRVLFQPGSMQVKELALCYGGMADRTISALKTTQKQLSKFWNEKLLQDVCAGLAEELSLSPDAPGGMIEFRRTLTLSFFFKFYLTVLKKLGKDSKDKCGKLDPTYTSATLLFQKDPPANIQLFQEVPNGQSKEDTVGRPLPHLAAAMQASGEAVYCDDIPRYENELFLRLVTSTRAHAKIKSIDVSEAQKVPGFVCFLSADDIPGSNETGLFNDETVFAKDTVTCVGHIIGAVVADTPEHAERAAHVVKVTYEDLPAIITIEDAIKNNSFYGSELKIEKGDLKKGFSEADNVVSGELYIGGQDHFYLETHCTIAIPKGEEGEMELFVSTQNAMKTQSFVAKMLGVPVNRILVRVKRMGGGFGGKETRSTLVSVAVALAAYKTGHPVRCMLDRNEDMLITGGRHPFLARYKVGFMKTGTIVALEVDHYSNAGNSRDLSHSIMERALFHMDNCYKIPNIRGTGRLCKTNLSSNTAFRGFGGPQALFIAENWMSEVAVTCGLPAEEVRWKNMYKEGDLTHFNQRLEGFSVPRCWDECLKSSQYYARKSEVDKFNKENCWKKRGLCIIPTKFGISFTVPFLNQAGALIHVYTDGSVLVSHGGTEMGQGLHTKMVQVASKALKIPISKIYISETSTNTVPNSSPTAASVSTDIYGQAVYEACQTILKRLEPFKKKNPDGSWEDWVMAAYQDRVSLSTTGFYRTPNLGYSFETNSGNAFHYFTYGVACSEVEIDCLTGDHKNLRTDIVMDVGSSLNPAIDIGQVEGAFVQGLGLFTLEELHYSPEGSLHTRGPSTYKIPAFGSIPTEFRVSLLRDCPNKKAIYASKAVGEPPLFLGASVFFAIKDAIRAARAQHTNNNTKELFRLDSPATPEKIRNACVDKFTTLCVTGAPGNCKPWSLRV

[2] = biological target: T1, Xanthine dehydrogenase/oxidase; assay: Inhibition of bovine serum Xanthine oxidase; type: cell-free
[3] = biological target: T2, Xanthine dehydrogenase/oxidase (Homo sapiens, UniProt P47989); assay: Inhibition of Xanthine oxidase (unknown origin)
T2 sequence (P47989 whole entry): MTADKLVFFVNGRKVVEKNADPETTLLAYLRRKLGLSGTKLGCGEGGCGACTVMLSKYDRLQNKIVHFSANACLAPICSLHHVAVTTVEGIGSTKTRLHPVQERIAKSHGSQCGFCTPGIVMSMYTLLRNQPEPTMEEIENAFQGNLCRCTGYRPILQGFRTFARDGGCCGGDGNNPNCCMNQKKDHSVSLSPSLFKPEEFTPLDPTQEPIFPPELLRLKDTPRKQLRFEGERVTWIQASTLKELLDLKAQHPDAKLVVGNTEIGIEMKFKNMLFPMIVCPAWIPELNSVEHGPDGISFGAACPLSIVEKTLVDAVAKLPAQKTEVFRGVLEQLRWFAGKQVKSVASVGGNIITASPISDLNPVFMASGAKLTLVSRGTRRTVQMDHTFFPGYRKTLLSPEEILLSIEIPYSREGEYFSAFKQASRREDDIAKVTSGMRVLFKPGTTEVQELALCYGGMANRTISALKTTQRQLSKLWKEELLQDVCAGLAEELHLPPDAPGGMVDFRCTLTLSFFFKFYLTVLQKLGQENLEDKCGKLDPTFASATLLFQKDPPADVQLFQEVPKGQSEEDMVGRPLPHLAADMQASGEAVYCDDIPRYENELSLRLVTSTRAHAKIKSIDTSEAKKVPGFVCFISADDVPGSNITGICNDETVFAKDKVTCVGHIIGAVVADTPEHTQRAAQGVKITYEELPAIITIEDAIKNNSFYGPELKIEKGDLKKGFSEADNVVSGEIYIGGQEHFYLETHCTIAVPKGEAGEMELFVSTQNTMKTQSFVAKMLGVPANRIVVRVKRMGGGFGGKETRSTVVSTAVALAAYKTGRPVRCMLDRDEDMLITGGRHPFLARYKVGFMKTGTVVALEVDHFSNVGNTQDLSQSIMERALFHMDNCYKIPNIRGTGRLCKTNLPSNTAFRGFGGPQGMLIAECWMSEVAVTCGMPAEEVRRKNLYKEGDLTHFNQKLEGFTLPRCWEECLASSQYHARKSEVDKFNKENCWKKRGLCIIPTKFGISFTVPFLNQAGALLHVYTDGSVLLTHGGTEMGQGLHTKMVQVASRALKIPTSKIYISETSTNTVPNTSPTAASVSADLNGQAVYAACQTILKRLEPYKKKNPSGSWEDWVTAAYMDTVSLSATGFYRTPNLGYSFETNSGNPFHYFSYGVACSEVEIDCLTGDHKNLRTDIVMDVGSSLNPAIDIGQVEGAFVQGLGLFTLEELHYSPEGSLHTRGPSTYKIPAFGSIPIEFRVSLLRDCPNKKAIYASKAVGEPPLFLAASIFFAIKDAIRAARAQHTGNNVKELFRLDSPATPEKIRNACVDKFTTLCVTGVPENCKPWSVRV

[4] = biological target: T2, Xanthine dehydrogenase/oxidase; assay: Inhibition of human Xanthine oxidase
[5] = biological target: T1, Xanthine dehydrogenase/oxidase; assay: Inhibition of bovine xanthine oxidase using xanthine as substrate by measuring uric acid formation measured 30 secs interval for 2 mins by spectrophotometric analysis
[6] = biological target: T2, Xanthine dehydrogenase/oxidase; assay: Inhibition of Xanthine oxidase (unknown origin) using xanthine as substrate preincubated for 30 mins followed by substrate addition by spectrophotometric analysis

SMILES | IC50 [3] [µM] | also measured
O=c1cc(O)cc(/C=C/c2ccc(O)c(O)c2)o1 [HISPIDIN] | – | IC50 [1]: 39.7 µM
N#Cc1cc[n+](Cc2ccc(-c3ccc(C[n+]4ccc(C#N)c(C(=O)O)c4)cc3)cc2)cc1C(=O)O | – | IC50 [2]: 0.394 µM
O=C1CCC(Nc2nc3cc(C(=O)Nc4cc(O)c(O)c(O)c4)ccc3n2Cc2ccc(O)cc2)C(=O)N1 (stereo unspecified) | 18.4 | –
COc1ccc([C@@H]2C/C(=N\c3ccc([N+](=O)[O-])cc3Cl)c3c(O)cc(O[C@H]4O[C@@H](O[C@H]5O[C@@H](C)[C@H](O)[C@@H](O)[C@H]5O)[C@H](O)[C@@H](O)[C@@H]4O)cc3O2)cc1O | – | IC50 [4]: 0.263 µM
COc1ccc2c(c1)C(=O)C(=O)N2CCn1cc(COc2cc(=O)oc3ccccc23)nn1 | – | IC50 [5]: 6.5 µM
COc1cc2ccc(C(=O)NCCCCc3ccc(O)c(O)c3)cc2cc1OC | 13.1 | –
O=c1[nH]c(-c2ccc(OCC3CCCCC3)c(-n3cnnn3)c2)no1 | 0.121 | –
C=Cc1ccc(C[n+]2cn(Cc3ccc(SC)cc3)c3ccccc32)cc1 | 0.59 | –
O=[N+]([O-])c1ccc(-c2cnc(-c3ccc(Br)cc3)s2)cc1 | 0.1 | –
Cc1c(/N=C/c2ccc(C(=O)Nc3nc4ccc(S(C)(=O)=O)cc4s3)cc2)c(=O)n(-c2ccccc2)n1C | 2.22 | –
CCn1c(O)c(C(c2ccc(Br)cc2)c2c(O)n(CC)c(=S)n(CC)c2=O)c(=O)n(CC)c1=S | 1.79 | –
C[C@@H]1O[C@@H](OC[C@H]2O[C@@H](Oc3c(-c4ccc(O)c(O)c4)oc4cc(O)cc(O)c4/c3=N\Nc3ccccc3)[C@H](O)[C@@H](O)[C@@H]2O)[C@H](O)[C@H](O)[C@H]1O | 4.87 | –
Nc1ccc(O)c(/N=N/c2ncc(-n3cc4c(=O)ncnc-4[nH]3)[nH]2)c1 | – | IC50 [6]: 0.6 µM
COc1ccc(C(=O)/C=C/c2ccc(O)cc2)c(OC)c1 | 0.121 | –
Oc1ccc(/C=C/c2cc(O)cc3oc(-c4ccc(O)cc4)c(-c4cc(O)cc(O)c4)c23)cc1 | 12.3 | –
OCc1nnn(Cc2cccc(Br)c2)c1CO | 0.71 | –
